Measured values as given in patent US20190161418A1, “OIL-SOLUBLE PLANT MICRONUTRIENTS” (Huntsman Petrochemical LLC, priority 2016, published 2019).

Test system: corn seedlings
Experiment: Zinc uptake measurements in corn seedlings (foliar spray, ICP-MS)
Assay type: in vivo
Conditions: corn seedling aerial tissue 48 hours after spray; normalized to water control (set as 1); average of two trials; ZnSO4 1 lb Zn/acre, Zn-LAS/MSO and Zn-EDTA 0.15 lb Zn/acre, Ca-LAS/MSO 1.07 g/L
Procedure: In this example, the Zn salt of linear alkylbenzene sulfonate from example 1 was sprayed on corn seedlings that were grown in potting soil and zinc uptake into the plant leaves was measured and compared to uptake of other forms of zinc as described below. The samples that were analyzed were prepared by spraying the leaves with the particular formulation, drying the leaves after spraying, grinding the leaves, digesting them in aqua regia and measuring the concentration of zinc in solution by inductively coupled plasma mass spectrometry (ICP-MS). Spray treatment formulations were prepared as follows, based on an average delivery of 3.3 mL solution per 4 inch square pot (16 in^2 treated area): • a) deionized water only • b) Ca-LAS/MSO: 1.07 g/L in deionized water • c) ZnSO4: 1.02 g/L ZnSO4 in deionized water to approximate the recommended use rate of 1 lb Zn in 20 gallons solution per acre • d) Zn-LAS/MSO (5% w/w Zn, density 1.02 g/mL): 1.07 g/L in deionized water to approximate a use rate of 0.15 lb Zn in 20 gallons solution per acre • e) Zn-EDTA (9% w/w Zn, density 1.31 g/mL): 0.59 g/L in deionized water to approximate the recommended use rate of 0.15 lb Zn in 20 gallons solution per acre.
After 48 hours of incubation, each seedling was cut just above the soil line and the aerial tissue was used for analysis. […]

O=S(=O)([O-])[O-].[Zn+2] [ZnSO4]
Relative Zinc Concentration: 2.01
